Laboratory results from the NIST ThermoML archive (doi:10.1021/je700338t).
Numbers after ± are expanded uncertainties.

Tests used:
[1] = refractive index (Na D-line) (dimensionless); conditions: 298.15 K, 101.33 kPa, Liquid
[2] = 298.15 K, 101.33 kPa, Liquid
[3] = refractive index (Na D-line) (dimensionless); xn = mol fraction of the nth substance listed; conditions: 298.15 K, 101 kPa, Liquid
[4] = xn = mol fraction of the nth substance listed; conditions: 298.15 K, 101 kPa, Liquid; for mass density: Vibrating tube method

CCCCn1cc[n+](C)c1.F[P-](F)(F)(F)(F)F [1-butyl-3-methylimidazolium hexafluorophosphate]
Conditions	mass density [kg/m3]	refractive index	speed of sound [m/s]	viscosity [mPa·s]
[1]	–	1.4095 ± 0.0018	–	–
[2]	1366.07 ± 3.8	–	1443.5 ± 3.5	212.1 ± 42

CCCCn1cc[n+](C)c1.F[P-](F)(F)(F)(F)F [1-butyl-3-methylimidazolium hexafluorophosphate] + C1CCOC1
Conditions	mass density, [4] [kg/m3]	refractive index, [3]	speed of sound, [4] [m/s]	viscosity, [4] [mPa·s]
x1 = 0.0199	911.565 ± 0.12	–	1279.2 ± 2.6	–
x1 = 0.0376	936.57 ± 0.12	–	1279.9 ± 2.7	–
x1 = 0.0502	–	1.4084 ± 0.0006	–	0.75 ± 0.077
x1 = 0.0737	979.097 ± 0.13	–	1287.9 ± 2.7	–
x1 = 0.0967	–	1.4117 ± 0.0006	–	1.14 ± 0.11
x1 = 0.15	1055.63 ± 0.22	–	1312.6 ± 2.8	–
x1 = 0.1524	–	1.4125 ± 0.0006	–	1.732 ± 0.16
x1 = 0.1999	–	1.4126 ± 0.0006	–	2.476 ± 0.22
x1 = 0.2003	1095.84 ± 0.27	–	1329.2 ± 2.8	–
x1 = 0.2486	1129.41 ± 0.32	–	1343.7 ± 2.8	–
x1 = 0.2969	–	1.413 ± 0.0007	–	4.937 ± 0.43
x1 = 0.3004	1159.97 ± 0.37	–	1357.3 ± 2.9	–
x1 = 0.3484	–	1.4128 ± 0.0007	–	6.979 ± 0.56
x1 = 0.3491	1185.7 ± 0.43	–	1368.6 ± 2.9	–
x1 = 0.3994	–	1.4127 ± 0.0007	–	10.06 ± 0.75
x1 = 0.4484	–	1.4126 ± 0.0007	–	14.54 ± 1
x1 = 0.4634	1235.91 ± 0.58	–	1390.5 ± 3	–
x1 = 0.5028	–	1.4117 ± 0.0007	–	18.5 ± 1.3
x1 = 0.5808	1276.69 ± 0.76	–	1406.9 ± 3.1	–
x1 = 0.6047	–	1.4115 ± 0.0007	–	33.63 ± 2.2
x1 = 0.6941	1306.09 ± 0.96	–	1418.7 ± 3.2	–
x1 = 0.7016	–	1.411 ± 0.0007	–	52.84 ± 1
x1 = 0.7996	1329.25 ± 1.2	–	1427.8 ± 3.3	–
x1 = 0.805	–	1.4105 ± 0.0007	–	90.82 ± 15
x1 = 0.8991	1348.14 ± 1.4	–	1435.7 ± 3.4	–
x1 = 0.9595	–	1.4095 ± 0.0007	–	186.86 ± 67

CCCCn1cc[n+](C)c1.F[P-](F)(F)(F)(F)F [1-butyl-3-methylimidazolium hexafluorophosphate] + CC#N
Conditions	refractive index, [3]	viscosity, [4] [mPa·s]
x1 = 0.0496	1.3575 ± 0.0006	0.556 ± 0.06
x1 = 0.1016	1.3687 ± 0.0006	0.864 ± 0.087
x1 = 0.147	1.3754 ± 0.0006	1.187 ± 0.12
x1 = 0.2022	1.3819 ± 0.0006	1.866 ± 0.17
x1 = 0.2995	1.3902 ± 0.0006	3.792 ± 0.34
x1 = 0.3524	1.3934 ± 0.0006	5.308 ± 0.45
x1 = 0.4036	1.3959 ± 0.0006	7.674 ± 0.6
x1 = 0.4337	1.3974 ± 0.0006	9.153 ± 0.69
x1 = 0.4955	1.3998 ± 0.0007	14.44 ± 1
x1 = 0.5892	1.4024 ± 0.0007	23.84 ± 1.6
x1 = 0.6857	1.4048 ± 0.0007	40.69 ± 2.7
x1 = 0.8046	1.4068 ± 0.0007	81.53 ± 11
x1 = 0.8055	1.4069 ± 0.0007	86.27 ± 13
x1 = 0.9176	1.4084 ± 0.0007	154.06 ± 47

CCCCn1cc[n+](C)c1.F[P-](F)(F)(F)(F)F [1-butyl-3-methylimidazolium hexafluorophosphate] + CO
Conditions	refractive index, [3]	viscosity, [4] [mPa·s]
x1 = 0.0503	1.348 ± 0.0009	0.913 ± 0.091
x1 = 0.0993	1.3636 ± 0.0009	1.483 ± 0.14
x1 = 0.1517	1.371 ± 0.0009	2.331 ± 0.21
x1 = 0.1969	1.3768 ± 0.0009	3.059 ± 0.27
x1 = 0.3024	1.3872 ± 0.0009	6.057 ± 0.5
x1 = 0.3531	1.3892 ± 0.002	8.072 ± 0.62
x1 = 0.4106	1.3941 ± 0.0009	11.03 ± 0.81
x1 = 0.451	1.3961 ± 0.001	13.52 ± 0.97
x1 = 0.502	1.3986 ± 0.001	17.29 ± 1.2
x1 = 0.6015	1.4015 ± 0.001	27.41 ± 1.8
x1 = 0.7082	1.4045 ± 0.001	45.95 ± 3
x1 = 0.7989	1.4066 ± 0.001	66.79 ± 5.4
x1 = 0.8889	1.4078 ± 0.001	107.94 ± 23

CCCCn1cc[n+](C)c1.F[P-](F)(F)(F)(F)F [1-butyl-3-methylimidazolium hexafluorophosphate] + C[S+](C)[O-]
Conditions	mass density, [4] [kg/m3]	refractive index, [3]	speed of sound, [4] [m/s]	viscosity, [4] [mPa·s]
x1 = 0.0011	1096.21 ± 0.078	–	1484.8 ± 2.9	–
x1 = 0.0024	1097.26 ± 0.079	–	1484.9 ± 2.9	–
x1 = 0.0187	1109.73 ± 0.088	–	1483.5 ± 2.9	–
x1 = 0.0321	1119.44 ± 0.097	–	1482.4 ± 2.9	–
x1 = 0.05	–	1.4676 ± 0.0006	–	2.749 ± 0.25
x1 = 0.0552	1135.09 ± 0.11	–	1480.5 ± 2.9	–
x1 = 0.0635	1140.41 ± 0.12	–	1479.9 ± 2.9	–
x1 = 0.0996	1161.89 ± 0.14	–	1477.3 ± 2.9	–
x1 = 0.0997	–	1.4606 ± 0.0006	–	3.698 ± 0.33
x1 = 0.1477	–	1.4546 ± 0.0006	–	4.962 ± 0.43
x1 = 0.153	1189.47 ± 0.18	–	1473.7 ± 2.9	–
x1 = 0.1977	–	1.4491 ± 0.0006	–	6.489 ± 0.53
x1 = 0.2381	1225.52 ± 0.25	–	1469.4 ± 3	–
x1 = 0.2995	–	1.4396 ± 0.0006	–	11.95 ± 0.87
x1 = 0.3372	1258.28 ± 0.35	–	1464.5 ± 3	–
x1 = 0.3524	–	1.4361 ± 0.0006	–	16 ± 1.1
x1 = 0.3997	–	1.4331 ± 0.0006	–	21.17 ± 1.4
x1 = 0.4328	–	1.4309 ± 0.0007	–	24.61 ± 1.7
x1 = 0.5018	–	1.4278 ± 0.0007	–	36.98 ± 2.4
x1 = 0.5586	1309.44 ± 0.65	–	1454.9 ± 3.1	–
x1 = 0.598	–	1.4226 ± 0.0007	–	56.31 ± 1.9
x1 = 0.7043	–	1.4182 ± 0.0007	–	83.73 ± 12
x1 = 0.7791	1342.89 ± 1.1	–	1448.2 ± 3.3	–
x1 = 0.7812	–	1.4158 ± 0.0007	–	117.54 ± 28
x1 = 0.893	–	1.4125 ± 0.0007	–	173.32 ± 59
x1 = 0.925	1359.3 ± 1.5	–	1444.7 ± 3.4	–

CC#N [acetonitrile]
Conditions	refractive index	speed of sound [m/s]
[1], Standard Abbe refractometry	1.3419 ± 0.0007	–
[2], Sing-around technique in a fixed-path interferometer	–	1278.7 ± 1.2

[2]
Conditions	mass density [kg/m3]	viscosity [mPa·s]
–	776.565 ± 0.31	0.339 ± 0.021

C[S+](C)[O-] [dimethyl sulfoxide]
Conditions	refractive index	speed of sound [m/s]
[1], Standard Abbe refractometry	1.4769 ± 0.0007	–
[2], Sing-around technique in a fixed-path interferometer	–	1485 ± 1.2

[2]
Conditions	mass density [kg/m3]	viscosity [mPa·s]
–	1095.3 ± 0.19	1.961 ± 0.09

CO [methanol]
Conditions	refractive index	speed of sound [m/s]
[1], Standard Abbe refractometry	1.3269 ± 0.0007	–
[2], Sing-around technique in a fixed-path interferometer	–	1102.9 ± 1.1

[2]
Conditions	mass density [kg/m3]	viscosity [mPa·s]
–	786.654 ± 0.3	0.54 ± 0.03

C1CCOC1 [tetrahydrofuran]
Conditions	refractive index	speed of sound [m/s]
[1], Standard Abbe refractometry	1.405 ± 0.0007	–
[2], Sing-around technique in a fixed-path interferometer	–	1278.2 ± 1.3

[2]
Conditions	mass density [kg/m3]	viscosity [mPa·s]
–	882.008 ± 0.45	0.449 ± 0.026
